Results: patent US9481871B2, “Nucleic acid encoding a polpeptide having aminotransferase activity, vectors and host cells comprising the nucleic acid” (KANEKA CORPORATION, priority 2010, dated 2016)
Like-named read-outs stand apart in the source and are kept apart here.

Experiments:
Type in all cases: biochemical, Arthrobacter sp. KNK04-25
TAT [1] = test: Specificity 2 to amino group donor: typical substrates of ω-amino acid transaminase; conditions: amino group donor 14 mM, 2-ketoglutaric acid 14 mM; for activity of the polypeptide for amino group donor (in words): pH 7.0; for Relative activity: pH 7.0, 30° C., 60 minutes, (S)-1-phenethylamine = 100
Procedure: (§1) Each reagent was added to the enzyme solution (100 μL each) so that the final concentrations were as specified in the following composition of the substrate solution. The volume of each reaction solution was adjusted to 400 μl with 0.1 M potassium phosphate buffer (pH 7.0). After 60 minutes of reaction at 30° C., 20 μL of 3N hydrochloric acid was added to stop the reaction. Next, 80 μL of a 0.2 M aqueous sodium carbonate solution and 200 μL of an acetone solution of 3.3 mg/mL Dabsyl chloride were each added to 20 μL of the thus obtained reaction solution, followed by 10 minutes of reaction at 70° C. Acetic acid (20 μL) was added to 50 μL of the reaction solution and then the solution was stirred. The resultant was analyzed by high performance liquid chromatography under the following conditions and thus the quantity of dabsylated glutamic acid was determined. In addition, the activity of an enzyme used in this assay was adjusted so that the amount of glutamic acid generated was 2.8 mM or less.
(§2) [Composition of Substrate Solution]
[High Performance Liquid Chromatography Analysis Conditions] • Column: YMC-Pack Pro C18 RS (YMC) • Eluent: acetonitrile/45 mM acetate buffer (pH 4.1)=35/65 (volume ratio) • Flow rate: 0.9 mL/minute • Detection: 254 nm • Column temperature: 30° C.

TAT [2] = test: Specificity to amino group donor (dabsylated glutamic acid, HPLC); conditions: amino group donor 14 mM, 2-ketoglutaric acid 14 mM
Procedure: The substrate specificity of TAT to amino group donors was examined using the cell-free extracts obtained in Example 5.
as §1, with “solution (100 μL, each) so” for “solution (100 μL each) so”, “C., 20 μL, of 3N” for “C., 20 μL of 3N”, “Next, 80 μL, of a” for “Next, 80 μL of a”, “and 200 μL, of an” for “and 200 μL of an”, “to 20 μL, of the” for “to 20 μL of the”, “to 50 μL, of the” for “to 50 μL of the”
as §2
[High Performance Liquid Chromatography Analysis Conditions] • Column: Cosmosil 5C8-MS (NACALAI TESQUE, INC.) • Eluent: distilled water 2000 mL/acetonitrile 500 mL/methanol 500 ml/KH2PO4 6.1 g/H3PO4 2.5 g • Flow rate: 1 mL/minute • Detection: 254 nm • Column temperature: 30° C.

TAT [3] = conditions: for Relative activity: 2-ketoglutaric acid = 100
[4] = amino group receptor 14 mM, (S)-1-phenethylamine 14 mM, pH 7.0, 30° C., 60 minutes

With Cl.NCCC(N)C(=O)O (racemic) [±2,4-diaminobutyric acid·HCl] the “activity of the polypeptide for amino group donor (in words)” value (TAT [1]) was “did not exhibit activity” and the Relative activity (TAT [1]) was 0%.
In the case of CCC(C)N (racemic) [±2-butylamine], the “activity of TAT for amino group donor (in words)” value (TAT [2]; pH 7.0) is reported as “exhibited activity” and the Relative activity (TAT [2]; pH 7.0, 30° C., 60 minutes, benzylamine = 100) is reported as 7%.
With O=C1CCN(Cc2ccccc2)C1 [1-benzyl-3-pyrrolidinone] the Relative activity (TAT [3]; […]) was 20%.
Compound O=C1CCCc2ccccc21 [1-tetralone] has a Relative activity (TAT [3]; […]) of 1%.
In the case of CC(=O)c1ccccn1 [2-acetylpyridine], the Relative activity (TAT [3]; […]) is reported as 60%.
CCC(C)=O [2-butanone] showed a Relative activity (TAT [3]; […]) of 0%.
With CCCCCC(C)=O [2-heptanone] the Relative activity (TAT [3]; […]) was 3%.
CCCCC(C)=O [2-hexanone] gave a Relative activity (TAT [3]; […]) of 4%.
In the case of CCCC(=O)C(=O)O [2-keto-n-valeric acid], the Relative activity (TAT [3]; [4]) is reported as 3%.
Compound CCC(=O)C(=O)O [2-ketobutyric acid] has a Relative activity (TAT [3]; […]) of 5%.
For O=C(O)CCC(=O)C(=O)O [2-ketoglutaric acid], the “activity of the polypeptide for amino group receptor (in words)” value (TAT [3]; amino group receptor 14 mM, (S)-1-phenethylamine 14 mM) was “high activity” and the Relative activity (TAT [3]; [4]) was 100%.
CCCC(C)=O [2-pentanone] was tested, and the Relative activity (TAT [3]; […]) was 1%.
With O=C1CCc2ccccc2C1 [2-tetralone] the Relative activity (TAT [3]; […]) was 1%.
For CCCCC(=O)CC [3-heptanone], the Relative activity (TAT [3]; […]) was 5%.
In the case of CCC(=O)CC#N [3-oxopentanenitrile], the Relative activity (TAT [3]; […]) is reported as 0%.
In the case of CCC(=O)CC [3-pentanone], the Relative activity (TAT [3]; […]) is reported as 1%.
With NCCCC(=O)O [4-aminobutyric acid] the “activity of the polypeptide for amino group donor (in words)” value (TAT [1]) was “did not exhibit activity” and the Relative activity (TAT [1]) was 0%.
For CC(=O)CCO [4-hydroxy butane-2-one], the Relative activity (TAT [3]; […]) was 0%.
In the case of NCCCCC(=O)O [5-aminovaleric acid], the “activity of the polypeptide for amino group donor (in words)” value (TAT [1]) is reported as “did not exhibit activity” and the Relative activity (TAT [1]) is reported as 0%.
For NCCCCCC(=O)O [6-aminocaproic acid], the “activity of the polypeptide for amino group donor (in words)” value (TAT [1]) was “did not exhibit activity” and the Relative activity (TAT [1]) was 0%.
COc1ccc2c(c1)CC(=O)CC2 [7-methoxy-2-tetralone] was tested, and the Relative activity (TAT [3]; […]) was 0%.
